Laboratory results reported in ChEMBL document CHEMBL4038290, “Structure activity relationship and optimization of N-(3-(2-aminothiazol-4-yl)aryl)benzenesulfonamides as anti-cancer compounds against sensitive and resistant cells” (Bioorg Med Chem Lett, 2017).
The source made the active and inactive calls. The calls are words filed in the database; no cut-off is given here.

Columns and labels:
A-375 [1] = test: Antiproliferative activity against human A375 cells assessed as cell viability at 10 uM after 48 hrs by trypan blue exclusion assay; type: functional; conditions: A-375, 48 h, read-out: Activity
A-375 [2] = test: Antiproliferative activity against human A375 cells assessed as cell viability at 5 uM after 48 hrs by trypan blue exclusion assay; type: functional; conditions: A-375, 48 h, read-out: Activity
A-375 [3] = test: Antiproliferative activity against human A375 cells assessed as cell viability at 1 uM after 48 hrs by trypan blue exclusion assay; type: functional; conditions: for viability at 1 µM: A-375, 48 h, read-out: Activity
BXPC-3 = test: Growth inhibition of human BxPC3 cells assessed as cell viability at 10 uM after 48 hrs by trypan blue exclusion assay; type: functional; conditions: BXPC-3, 48 h, read-out: Activity
MIA PaCa-2 = test: Growth inhibition of gemcitabine-resistant human MIAPaCa2 cells assessed as cell viability at 10 uM after 48 hrs by trypan blue exclusion assay relative to control; type: functional; conditions: MIA PaCa-2, 48 h, read-out: Activity
[4] = Growth inhibition of human A375 RIV cells assessed as cell viability at 10 uM after 48 hrs by trypan blue exclusion assay; type: functional; conditions: A-375, 48 h, read-out: Activity
[5] = Growth inhibition of human A375 R5C3 cells assessed as cell viability at 10 uM after 48 hrs by trypan blue exclusion assay; type: functional; conditions: A-375, 48 h, read-out: Activity
K562 = test: Growth inhibition of human K562 cells assessed as cell viability at 10 uM after 48 hrs by trypan blue exclusion assay; type: functional; conditions: K562, 48 h, read-out: Activity
K-562R = test: Growth inhibition of human K562R cells assessed as cell viability at 10 uM after 48 hrs by trypan blue exclusion assay; type: functional; conditions: read-out: Activity
[6] = biological target: T1, Eukaryotic translation initiation factor 2-alpha kinase 3 (Homo sapiens) (UniProt Q9NZJ5); test: Activation of PERK in human A375 cells at 2.5 to 10 uM after 12 hrs by Western blot analysis; type: cell-based
T1 sequence (whole entry): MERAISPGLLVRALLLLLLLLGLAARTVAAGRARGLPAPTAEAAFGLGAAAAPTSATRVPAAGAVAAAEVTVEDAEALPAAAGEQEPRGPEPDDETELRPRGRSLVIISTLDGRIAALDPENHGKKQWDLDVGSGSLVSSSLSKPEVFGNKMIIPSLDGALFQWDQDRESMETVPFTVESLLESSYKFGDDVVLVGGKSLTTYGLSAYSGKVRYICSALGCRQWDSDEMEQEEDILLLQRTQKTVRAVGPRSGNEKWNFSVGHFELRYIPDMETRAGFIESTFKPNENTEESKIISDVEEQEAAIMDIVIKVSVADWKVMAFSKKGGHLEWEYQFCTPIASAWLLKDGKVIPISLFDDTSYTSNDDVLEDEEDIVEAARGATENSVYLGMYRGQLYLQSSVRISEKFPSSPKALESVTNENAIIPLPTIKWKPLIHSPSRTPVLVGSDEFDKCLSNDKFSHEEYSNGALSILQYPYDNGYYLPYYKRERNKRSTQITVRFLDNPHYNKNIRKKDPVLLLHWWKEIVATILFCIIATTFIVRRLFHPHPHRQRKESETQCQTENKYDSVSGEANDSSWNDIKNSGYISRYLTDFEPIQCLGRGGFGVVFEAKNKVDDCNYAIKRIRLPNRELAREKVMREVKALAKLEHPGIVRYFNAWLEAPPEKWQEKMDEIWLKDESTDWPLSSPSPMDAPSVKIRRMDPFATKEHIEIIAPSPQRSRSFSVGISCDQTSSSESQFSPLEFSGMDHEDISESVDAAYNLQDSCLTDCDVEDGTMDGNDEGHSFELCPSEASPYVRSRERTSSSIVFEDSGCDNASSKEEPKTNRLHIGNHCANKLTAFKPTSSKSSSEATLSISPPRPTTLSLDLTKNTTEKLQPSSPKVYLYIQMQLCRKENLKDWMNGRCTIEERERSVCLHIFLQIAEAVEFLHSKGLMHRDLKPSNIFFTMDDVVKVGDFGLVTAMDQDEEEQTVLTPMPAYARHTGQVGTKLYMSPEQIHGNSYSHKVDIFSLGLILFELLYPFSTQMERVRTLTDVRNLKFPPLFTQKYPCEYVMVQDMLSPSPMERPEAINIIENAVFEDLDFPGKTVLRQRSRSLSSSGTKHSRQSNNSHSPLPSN

[7] = biological target: T1, Eukaryotic translation initiation factor 2-alpha kinase 3 (Homo sapiens); test: Activation of PERK in human A375 cells assessed as increase in CHOP expression at 2.5 to 10 uM after 12 hrs by Western blot analysis; type: cell-based
A-375 [8] = test: Induction of apoptosis in human A375 cells assessed as cleavage of PARP protein at 2.5 to 10 uM after 12 hrs by Western blot analysis; type: functional, cell-based
A-375 [9] = test: Induction of autophagy in human A375 cells assessed as increase in conversion of LC3-I to LC3-II at 2.5 to 10 uM after 12 hrs by Western blot analysis; type: functional, cell-based
A-375 [10] = test: Induction of autophagy in human A375 cells assessed as increase in conversion of LC3-I to LC3-II at 1 to 5 uM after 24 hrs by Western blot analysis; type: functional, cell-based
[11] = biological target: T1, Eukaryotic translation initiation factor 2-alpha kinase 3 (Homo sapiens); test: Activation of PERK in human A375 cells at 1 to 2.5 uM after 48 hrs by Western blot analysis; type: cell-based
[12] = biological target: T1, Eukaryotic translation initiation factor 2-alpha kinase 3 (Homo sapiens); test: Activation of PERK in human A375 cells assessed as increase in CHOP expression at 1 to 2.5 uM after 48 hrs by Western blot analysis; type: cell-based
A-375 [13] = test: Induction of autophagy in human A375 cells assessed as increase in conversion of LC3-I to LC3-II at 1 to 2.5 uM after 48 hrs by Western blot analysis; type: functional, cell-based
A-375 [14] = test: Antiproliferative activity against human A375 cells after 48 hrs by trypan blue exclusion assay; type: functional, cell-based; conditions: A-375, 48 h

Structure (SMILES) | viability at 10 µM (A-375 [1]) | viability at 5 µM (A-375 [2]) | viability at 1 µM (A-375 [3]) | also measured
CC(=O)Nc1nc(-c2cccc(NS(=O)(=O)c3cccc(C#C[Si](C)(C)C)c3)c2)cs1 | 5.8% | < 1% | 61.6% | 
CCCCCCC#Cc1ccc(S(=O)(=O)Nc2cccc(-c3csc(NC(C)=O)n3)c2)cc1 | 5.8% | 12.8% | 40.7% | 
C#Cc1cccc(S(=O)(=O)Nc2cccc(-c3csc(NC(C)=O)n3)c2)c1 | 18.6% | 29% | 74.3% | 
CC(=O)Nc1nc(-c2cccc(NS(=O)(=O)c3ccc(C#C[Si](C)(C)C)cc3)c2)cs1 | < 1% | 4.2% | 94.3% | 
CCCCCCc1ccc(S(=O)(=O)Nc2cccc(-c3csc(NC(C)=O)n3)c2)cc1 |  | < 1% | 49.9% | viability at 10 µM (BXPC-3): 5.9%; viability at 10 µM (MIA PaCa-2): 1.3%; viability at 10 µM [4]: 3.4%; viability at 10 µM [5]: 1.4%; viability at 10 µM (K562): 23.2%; viability at 10 µM (K-562R): 41.6%
CCCCCCCCC#Cc1ccc(S(=O)(=O)Nc2cccc(-c3csc(NC(C)=O)n3)c2)cc1 | < 1% | 8.9% | 39.6% | 
CCCCCCC#Cc1ccc(S(=O)(=O)Nc2cccc(-c3csc(Nc4ccccc4)n3)c2)cc1 | 5.8% | 59.2% | 87.1% | 
CC(=O)Nc1nc(-c2cccc(NS(=O)(=O)c3ccc(C#CC4CCCCC4)cc3)c2)cs1 | 1.2% | 1.2% | 52.3% | 
C#Cc1ccc(S(=O)(=O)Nc2cccc(-c3csc(NC(C)=O)n3)c2)cc1 | 1.2% | 38.3% | 59.2% | 
CCCCCCC#Cc1cccc(S(=O)(=O)Nc2cccc(-c3csc(NC(C)=O)n3)c2)c1 | < 1% | 1.2% | 56.9% | 
CC(=O)Nc1nc(-c2cccc(NS(=O)(=O)c3ccc(C#CCCc4ccccc4)cc3)c2)cs1 | < 1% | 4.2% | 11.5% | 
CCCCCC/C=C\c1ccc(S(=O)(=O)Nc2cccc(-c3csc(NC(C)=O)n3)c2)cc1 |  | 2.3% | 48.8% | viability at 10 µM (BXPC-3): 2%; viability at 10 µM (MIA PaCa-2): 11.4%; viability at 10 µM [4]: < 1%; viability at 10 µM [5]: < 1%; viability at 10 µM (K562): 8.9%; viability at 10 µM (K-562R): 41.1%
CCCCCCC#Cc1ccc(S(=O)(=O)Nc2cccc(-c3csc(NC)n3)c2)cc1 | 1.2% | 8.1% | 36.6% | 
CCCCCCC#Cc1ccc(S(=O)(=O)Nc2cccc(-c3csc(N)n3)c2)cc1 | 3.5% | < 1% | 97.6% | 
CCCCCCCCc1ccc(S(=O)(=O)Nc2cccc(-c3csc(NC(C)=O)n3)c2)cc1 | < 1% | < 1% | 34.8% | Activity [6]: Active; viability at 10 µM (BXPC-3): 4.9%; viability at 10 µM (MIA PaCa-2): 11.4%; viability at 10 µM [4]: 2.6%; viability at 10 µM [5]: 1.4%; viability at 10 µM (K562): 3.8%; viability at 10 µM (K-562R): 10.1%; Activity [7]: Active; Activity (A-375 [8]): Active; Activity (A-375 [9]): Active; Activity (A-375 [10]): Active; Activity [11]: Active; Activity [12]: Active; Activity (A-375 [13]): Active
CC(=O)Nc1nc(-c2cccc(NS(=O)(=O)c3cccc(Br)c3)c2)cs1 | 36% | 67.4% |  | Activity (A-375 [3]): inactive
CC(=O)Nc1nc(-c2cccc(NS(=O)(=O)c3ccc(Br)cc3)c2)cs1 | 25.6% | 19.7% |  | Activity (A-375 [3]): inactive
CC(=O)Nc1nc(-c2cccc(NS(=O)(=O)c3ccc(C#CCO)cc3)c2)cs1 | 48.8% | 99.3% | 81.3% | EC50 (A-375 [14]): 10 µM
CC(=O)Nc1nc(-c2cccc(NS(=O)(=O)c3cccc(C#CCO)c3)c2)cs1 | 45.3% | 66.2% | 85.4% | EC50 (A-375 [14]): 10 µM
CCCCC#Cc1ccc(S(=O)(=O)Nc2cccc(-c3csc(NC(C)=O)n3)c2)cc1 | < 1% | 9.3% | 73.2% | 
